Assay [1] has as its system Mus musculus. In words: Phagocytic activity was assessed in a carbon clearance assay in male DDY mice at the dose of 0.1 mg/kg. On the set-up: dose 0.1 mg/kg. The class given is functional, organism-based.
The subject of assay [2] is Mus musculus. In words: Phagocytic activity was assessed in a carbon clearance assay in male DDY mice at the dose of 1 mg/kg. The class given is functional, organism-based. On the set-up: dose 1 mg/kg.
The species named for assay [3] is Cavia porcellus. In words: Ability to induce delayed-type hypersensitivity to egg albumin in Hartley guinea pigs at the dose of 10 ug/site. The class given is functional. On the set-up: unit not given beside the values.
Assay [4] in a line: Phagocytic activity was assessed in a carbon clearance assay and stimulation index was reported in male DDY mice at the dose of 0.1 mg/kg; Kt/Kc. The format is functional.
A short description of assay [5]: Phagocytic activity was assessed in a carbon clearance assay and stimulation index was reported in male DDY mice at the dose of 1 mg/kg; Kt/Kc. The class given is functional.
The subject of assay [6] is Mus musculus. In words: Antiinfectious effect against Escherichia coli 22 in ICR mice(10) at the dose of 1 mg/kg (i.p.) expressed as number of survivals. The format is functional. To be noted: route intraperitoneal.
The species entered for assay [7] is Cavia porcellus. In words: Ability to induce delayed-type hypersensitivity to egg albumin in Hartley guinea pigs at the dose of 1 ug/site. The format is functional.
The subject of assay [8] is Mus musculus. In words: Antiinfectious effect against Escherichia coli 22 in ICR mice(10) at the dose of 0.1 mg/kg (i.p.) expressed as number of survivals. The class given is functional. To be noted: route intraperitoneal.
For assay [9], the species on record is Mus musculus. The assay is described as follows: Tumor suppressive activity against meth-A fibrosarcoma in BALB/c mice(9) at the dose of 100 ug/site. The class given is functional.
Assay [10] relates to Mus musculus. In words: Antiinfectious effect against Escherichia coli 22 in ICR mice(10) at the dose of 1 mg/kg (i.p.) expressed as survivals. The class given is functional. To be noted: route intraperitoneal.
Assay [11] can be described thus: Phagocytic activity was assessed in a carbon clearance assay and stimulation index was reported in male DDY mice at the dose of 10 mg/kg; Kt/Kc. The format is functional.
Assay [12] concerns Mus musculus. In words: Phagocytic activity was assessed in a carbon clearance assay in male DDY mice at the dose of 10 mg/kg. On the set-up: dose 10 mg/kg. The class given is functional, organism-based.
The species entered for assay [13] is Mus musculus. In words: Tumor suppressive activity against meth-A fibrosarcoma in BALB/c mice (10) at the dose of 100 ug/site. The class given is functional.

The results in this text go back to ChEMBL document CHEMBL1122029, “N2-(gamma-D-Glutamyl)-meso-2(L),2'(D)-diaminopimelic acid as the minimal prerequisite structure of FK-156: its acyl derivatives with potent immunostimulating activity” (1982).

Bounds are passed on as bounds.

As to `CCCCCCCC(=O)NC(CCC(=O)NC(CCCC(N)C(=O)O)C(=O)O)C(=O)O` (centres undefined), the K in the assay on Mus musculus [1] was found to be 0.032; with Mus musculus [2], 0.048. Also, the figures for the Skin response in the assay listed under Cavia porcellus [3] and in the assay listed under Cavia porcellus [7] were 3.7 and 8.3, respectively. In addition, the Ratio is given as 1.6 in assay [4] and 2.4 in assay [5]. The Survival was 6 in the assay on Mus musculus [6] and 7 in the assay on Mus musculus [8].

For the molecule `CCCCCCCCCCCCCCCCCC(=O)NC(CCC(=O)NC(CCCC(N)C(=O)O)C(=O)O)C(=O)O` (centres undefined), the K was 0.032 in the assay with Mus musculus [1] and below 0.048 in the assay with Mus musculus [2]. Also, the values for the Skin response in the assay listed under Cavia porcellus [3] and in the assay filed under Cavia porcellus [7] were below 3.1 and 1.7, respectively. Moreover, the results for the Ratio in assay [4] and in assay [5] were 1.6 and 2.4, respectively. The Suppression in the assay filed under Mus musculus [9] is 9. For the same molecule, the Survival in the assay on Mus musculus [6] stood at 8; with Mus musculus [8], 7.

Take `NC(CCCC(NC(=O)CCC(N)C(=O)O)C(=O)O)C(=O)O` (centres undefined): the K amounted to 0.021 with Mus musculus [2] and 0.058 in the assay on Mus musculus [12]. The results for the Skin response in the assay listed under Cavia porcellus [3] and in the assay listed under Cavia porcellus [7] were 6.9 and 3.3, respectively. Moreover, the values for the Ratio in [5] and in assay [11] were 1.1 and 2.9, respectively. Besides, the Survival in the assay on Mus musculus [10] and with Mus musculus [8] was 4 throughout.

On to `CC(O)C(=O)NC(C)C(=O)NC(CCC(=O)NC(CCCC(N)C(=O)O)C(=O)NCC(=O)O)C(=O)O` (centres undefined), for which the K in the assay with Mus musculus [1] worked out at 0.029; in the assay with Mus musculus [2] it was 0.038. This molecule also yielded a Suppression in the assay filed under Mus musculus [13] of 0. For the same molecule, the values for the Skin response in the assay listed under Cavia porcellus [3] and in the assay listed under Cavia porcellus [7] were 10 and 8.2, respectively. Besides, the Ratio in assay [4] came to 1.5; in [5] it was 1.9. For the same molecule, the Survival was found to be 7 in the assay on Mus musculus [6] and 6 with Mus musculus [8].
